Columns and labels:
Assay in all cases: Inhibition of bacteria growth, drug dilution tubes, anaerobic
Format in all cases: cell-based
Set-up in all cases: key to growth: (+) for growth; (−) for no growth; (±) for suboptimal growth after an initial observation of growth
[1] = test system: Mobiluncus mulieris ATCC 35243
Experimental: (§1) Serial dilutions of tinidazole and terconazole were prepared by adding measured amounts of each substance to water (both individually and in combination). Seven bacterial organisms that are common pathogens in bacterial vaginosis were grown anaerobically in the medium as listed in Table 4 under a N2/H2/CO2 (85:5:10) head space atmosphere. [table] These cultures were diluted to a 0.5 McFarland standard prior to inoculation of drug dilution tubes. One (1) mL of the 0.5 McFarland preparation was inoculated to an anaerobically prepared test tube containing 0.8 mL of Difco anaerobic medium (DAMM) and 0.2 mL of appropriate diluted antimicrobial or antimicrobial combination for a total of 2 mL. The inoculated tubes were then incubated at 37° C. and monitored daily for growth. Growth was scored with a (+) for growth, (−) for no growth, and (±) for suboptimal growth after an initial observation of growth. Tinidazole is abbreviated as TNZ and terconazole is abbreviated as TER in Tables 5 through 11.

Atopobium vaginae BAA-55 = test system: Atopobium vaginae BAA-55
Experimental: as §1

[2] = test system: Gardnerella vaginalis ATCC 14019
Experimental: as §1

Compound: CC(C)N1CCN(c2ccc(OCC3COC(Cn4cncn4)(c4ccc(Cl)cc4Cl)O3)cc2)CC1 (stereo not drawn) [TER, cis-1-[p[[2-(2,4-dichlorophenyl)-2-(1 H-1,2,4-triazol-1-ylmethyl)-1,3-dioxolan-4-yl]methoxy]phenyl]-4-isopropylpiperazine]
- growth ([1]; TER 3.1 μg/ml, DAY 1): (+)
- growth ([1]; TER 3.1 μg/ml, DAY 2): (+)
- growth ([1]; TER 3.1 μg/ml, DAY 3): (+)
- growth ([1]; TER 3.1 μg/ml, DAY 4): (+)
- growth ([1]; TER 3.1 μg/ml, DAY 5): (+)
- growth ([1]; TER 6.2 μg/ml, DAY 1): (+)
- growth ([1]; TER 6.2 μg/ml, DAY 2): (+)
- growth ([1]; TER 6.2 μg/ml, DAY 3): (+)
- growth ([1]; TER 6.2 μg/ml, DAY 4): (+)
- growth ([1]; TER 6.2 μg/ml, DAY 5): (+)
- growth ([1]; TER 12.5 μg/ml, DAY 1): (+)
- growth ([1]; TER 12.5 μg/ml, DAY 2): (+)
- growth ([1]; TER 12.5 μg/ml, DAY 3): (+)
- growth ([1]; TER 12.5 μg/ml, DAY 4): (+)
- growth ([1]; TER 12.5 μg/ml, DAY 5): (+)
- growth ([1]; TER 25 μg/ml, DAY 1): (+)
- growth ([1]; TER 25 μg/ml, DAY 2): (+)
- growth ([1]; TER 25 μg/ml, DAY 3): (+)
- growth ([1]; TER 25 μg/ml, DAY 4): (+)
- growth ([1]; TER 25 μg/ml, DAY 5): (+)
- growth ([1]; TER 50 μg/ml, DAY 1): (+)
- growth ([1]; TER 50 μg/ml, DAY 2): (+)
- growth ([1]; TER 50 μg/ml, DAY 3): (+)
- growth ([1]; TER 50 μg/ml, DAY 4): (+)
- growth ([1]; TER 50 μg/ml, DAY 5): (+)
- growth ([1]; TER 100 μg/ml, DAY 1): (+)
- growth ([1]; TER 100 μg/ml, DAY 2): (+)
- growth ([1]; TER 100 μg/ml, DAY 3): (+)
- growth ([1]; TER 100 μg/ml, DAY 4): (+)
- growth ([1]; TER 100 μg/ml, DAY 5): (+)
- growth ([1]; TER 200 μg/ml, DAY 1): (+)
- growth ([1]; TER 200 μg/ml, DAY 2): (+)
- growth ([1]; TER 200 μg/ml, DAY 3): (+)
- growth ([1]; TER 200 μg/ml, DAY 4): (+)
- growth ([1]; TER 200 μg/ml, DAY 5): (+)
- growth ([1]; TER 400 μg/ml, DAY 1): (−)
- growth ([1]; TER 400 μg/ml, DAY 2): (−)
- growth ([1]; TER 400 μg/ml, DAY 3): (−)
- growth ([1]; TER 400 μg/ml, DAY 4): (−)
- growth ([1]; TER 400 μg/ml, DAY 5): (−)
- growth ([1]; TER 800 μg/ml, DAY 1): (−)
- growth ([1]; TER 800 μg/ml, DAY 2): (−)
- growth ([1]; TER 800 μg/ml, DAY 3): (−)
- growth ([1]; TER 800 μg/ml, DAY 4): (−)
- growth ([1]; TER 800 μg/ml, DAY 5): (−)
- antibacterial activity compared with tinidazole ([1]; Tables 6 through 11): superior to the antibacterial compound tinidazole
- growth (Atopobium vaginae BAA-55; TER 3.1 μg/ml, DAY 1): (+)
- growth (Atopobium vaginae BAA-55; TER 3.1 μg/ml, DAY 2): (+)
- growth (Atopobium vaginae BAA-55; TER 3.1 μg/ml, DAY 3): (+)
- growth (Atopobium vaginae BAA-55; TER 3.1 μg/ml, DAY 4): (+)
- growth (Atopobium vaginae BAA-55; TER 3.1 μg/ml, DAY 5): (+)
- growth (Atopobium vaginae BAA-55; TER 6.2 μg/ml, DAY 1): (+)
- growth (Atopobium vaginae BAA-55; TER 6.2 μg/ml, DAY 2): (+)
- growth (Atopobium vaginae BAA-55; TER 6.2 μg/ml, DAY 3): (+)
- growth (Atopobium vaginae BAA-55; TER 6.2 μg/ml, DAY 4): (+)
- growth (Atopobium vaginae BAA-55; TER 6.2 μg/ml, DAY 5): (+)
- growth (Atopobium vaginae BAA-55; TER 12.5 μg/ml, DAY 1): (+)
- growth (Atopobium vaginae BAA-55; TER 12.5 μg/ml, DAY 2): (+)
- growth (Atopobium vaginae BAA-55; TER 12.5 μg/ml, DAY 3): (+)
- growth (Atopobium vaginae BAA-55; TER 12.5 μg/ml, DAY 4): (+)
- growth (Atopobium vaginae BAA-55; TER 12.5 μg/ml, DAY 5): (+)
- growth (Atopobium vaginae BAA-55; TER 25 μg/ml, DAY 1): (+)
- growth (Atopobium vaginae BAA-55; TER 25 μg/ml, DAY 2): (+)
- growth (Atopobium vaginae BAA-55; TER 25 μg/ml, DAY 3): (+)
- growth (Atopobium vaginae BAA-55; TER 25 μg/ml, DAY 4): (+)
- growth (Atopobium vaginae BAA-55; TER 25 μg/ml, DAY 5): (+)
- growth (Atopobium vaginae BAA-55; TER 50 μg/ml, DAY 1): (+)
- growth (Atopobium vaginae BAA-55; TER 50 μg/ml, DAY 2): (+)
- growth (Atopobium vaginae BAA-55; TER 50 μg/ml, DAY 3): (+)
- growth (Atopobium vaginae BAA-55; TER 50 μg/ml, DAY 4): (+)
- growth (Atopobium vaginae BAA-55; TER 50 μg/ml, DAY 5): (+)
- growth (Atopobium vaginae BAA-55; TER 100 μg/ml, DAY 1): (−)
- growth (Atopobium vaginae BAA-55; TER 100 μg/ml, DAY 2): (−)
- growth (Atopobium vaginae BAA-55; TER 100 μg/ml, DAY 3): (+)
- growth (Atopobium vaginae BAA-55; TER 100 μg/ml, DAY 4): (+)
- growth (Atopobium vaginae BAA-55; TER 100 μg/ml, DAY 5): (+)
- growth (Atopobium vaginae BAA-55; TER 200 μg/ml, DAY 1): (−)
- growth (Atopobium vaginae BAA-55; TER 200 μg/ml, DAY 2): (−)
- growth (Atopobium vaginae BAA-55; TER 200 μg/ml, DAY 3): (−)
- growth (Atopobium vaginae BAA-55; TER 200 μg/ml, DAY 4): (+)
- growth (Atopobium vaginae BAA-55; TER 200 μg/ml, DAY 5): (+)
- growth (Atopobium vaginae BAA-55; TER 400 μg/ml, DAY 1): (−)
- growth (Atopobium vaginae BAA-55; TER 400 μg/ml, DAY 2): (−)
- growth (Atopobium vaginae BAA-55; TER 400 μg/ml, DAY 3): (−)
- growth (Atopobium vaginae BAA-55; TER 400 μg/ml, DAY 4): (−)
- growth (Atopobium vaginae BAA-55; TER 400 μg/ml, DAY 5): (−)
- growth (Atopobium vaginae BAA-55; TER 800 μg/ml, DAY 1): (−)
- growth (Atopobium vaginae BAA-55; TER 800 μg/ml, DAY 2): (−)
- growth (Atopobium vaginae BAA-55; TER 800 μg/ml, DAY 3): (−)
- growth (Atopobium vaginae BAA-55; TER 800 μg/ml, DAY 4): (−)
- growth (Atopobium vaginae BAA-55; TER 800 μg/ml, DAY 5): (−)
- antibacterial activity compared with tinidazole (Atopobium vaginae BAA-55; Tables 6 through 11): superior to the antibacterial compound tinidazole
- antibacterial activity compared with tinidazole [2]: superior to the antibacterial compound tinidazole
- growth ([2]; TER 3.1 μg/ml, DAY 1): (+)
- growth ([2]; TER 3.1 μg/ml, DAY 2): (+)
- growth ([2]; TER 3.1 μg/ml, DAY 3): (+)
- growth ([2]; TER 3.1 μg/ml, DAY 4): (+)
- growth ([2]; TER 3.1 μg/ml, DAY 5): (+)
- growth ([2]; TER 6.2 μg/ml, DAY 1): (+)
- growth ([2]; TER 6.2 μg/ml, DAY 2): (+)
- growth ([2]; TER 6.2 μg/ml, DAY 3): (+)
- growth ([2]; TER 6.2 μg/ml, DAY 4): (+)
- growth ([2]; TER 6.2 μg/ml, DAY 5): (+)
- growth ([2]; TER 12.5 μg/ml, DAY 1): (+)
- growth ([2]; TER 12.5 μg/ml, DAY 2): (+)
- growth ([2]; TER 12.5 μg/ml, DAY 3): (+)
- growth ([2]; TER 12.5 μg/ml, DAY 4): (+)
- growth ([2]; TER 12.5 μg/ml, DAY 5): (+)
- growth ([2]; TER 25 μg/ml, DAY 1): (+)
- growth ([2]; TER 25 μg/ml, DAY 2): (+)
- growth ([2]; TER 25 μg/ml, DAY 3): (+)
- growth ([2]; TER 25 μg/ml, DAY 4): (+)
- growth ([2]; TER 25 μg/ml, DAY 5): (+)
- growth ([2]; TER 50 μg/ml, DAY 1): (+)
- growth ([2]; TER 50 μg/ml, DAY 2): (+)
- growth ([2]; TER 50 μg/ml, DAY 3): (+)
- growth ([2]; TER 50 μg/ml, DAY 4): (+)
- growth ([2]; TER 50 μg/ml, DAY 5): (+)
- growth ([2]; TER 100 μg/ml, DAY 1): (+)
- growth ([2]; TER 100 μg/ml, DAY 2): (+)
- growth ([2]; TER 100 μg/ml, DAY 3): (+)
- growth ([2]; TER 100 μg/ml, DAY 4): (+)
- growth ([2]; TER 100 μg/ml, DAY 5): (+)
- growth ([2]; TER 200 μg/ml, DAY 1): (+)
- growth ([2]; TER 200 μg/ml, DAY 2): (+)
- growth ([2]; TER 200 μg/ml, DAY 3): (+)
- growth ([2]; TER 200 μg/ml, DAY 4): (+)
- growth ([2]; TER 200 μg/ml, DAY 5): (+)
- growth ([2]; TER 400 μg/ml, DAY 1): (+)
- growth ([2]; TER 400 μg/ml, DAY 2): (+)
- growth ([2]; TER 400 μg/ml, DAY 3): (+)
- growth ([2]; TER 400 μg/ml, DAY 4): (+)
- growth ([2]; TER 400 μg/ml, DAY 5): (+)
- growth ([2]; TER 800 μg/ml, DAY 1): (−)
- growth ([2]; TER 800 μg/ml, DAY 2): (−)
- growth ([2]; TER 800 μg/ml, DAY 3): (−)
- growth ([2]; TER 800 μg/ml, DAY 4): (−)
- growth ([2]; TER 800 μg/ml, DAY 5): (−)

Source: patent US20080063668A1, “Nitroimidazole and terconazole composition and method” (priority 2006, published 2008)
